PubChem BioAssay (NCI)
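Interpolation was linear, between the two tested concentrations surrounding the appropriate level; five concentrations were tested over 48 hours in 96-well plates. The concentration for 50% growth inhibition is given as GI50. At the TGI there is no net growth.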

Legend:
Assay in all cases: growth of human tumour cells (NCI), 48 h
A498 renal = test system: A498 renal
HOP-92 NSCLC = test system: HOP-92 NSCLC
SF-295 CNS = test system: SF-295 CNS
MDA-MB-231 breast = test system: MDA-MB-231 breast
K-562 leukemia = test system: K-562 leukemia
OVCAR-4 ovarian = test system: OVCAR-4 ovarian
SK-MEL-2 melanoma = test system: SK-MEL-2 melanoma
HCT-116 colon = test system: HCT-116 colon
MCF7 breast = test system: MCF7 breast
NCI-H460 lung = test system: NCI-H460 lung

## N/C(=N\OC(=O)c1ccccc1)C(Cc1ccccc1)C(=O)NOC(=O)c1ccccc1 (stereo not given)
A498 renal
  GI50: 11 µM
  TGI: 23.2 µM
HOP-92 NSCLC
  GI50: 1.84 µM
  TGI: 3.63 µM
SF-295 CNS
  GI50: 1.38 µM
  TGI: 3.1 µM
MDA-MB-231 breast
  GI50: 4.6 µM
  TGI: 18.1 µM
K-562 leukemia
  GI50: 1.05 µM
  TGI: 3.42 µM
OVCAR-4 ovarian
  GI50: 4.38 µM
  TGI: 27.3 µM
SK-MEL-2 melanoma
  GI50: 2.16 µM
  TGI: 4.17 µM
HCT-116 colon
  GI50: 1.66 µM
  TGI: 3.38 µM
MCF7 breast
  GI50: 2.78 µM
  TGI: 10.3 µM
NCI-H460 lung
  GI50: 1.76 µM
  TGI: 3.71 µM

## C[C@@H]1Cc2cc(O)ccc2[C@H]2CC[C@]3(C)/C(=C/COCCN(C)C)CC[C@H]3[C@H]12 (tested in a mixture with another compound)
A498 renal
  GI50: 0.534 µM
  TGI: 1.59 µM
HOP-92 NSCLC
  GI50: 0.216 µM
  TGI: 0.872 µM
SF-295 CNS
  GI50: 0.175 µM
  TGI: 0.474 µM
MDA-MB-231 breast
  GI50: 0.833 µM
  TGI: 3.15 µM
K-562 leukemia
  GI50: 0.256 µM
  TGI: 0.985 µM
OVCAR-4 ovarian
  GI50: 0.271 µM
  TGI: 0.771 µM
SK-MEL-2 melanoma
  GI50: 0.323 µM
  TGI: 0.845 µM
HCT-116 colon
  GI50: 0.245 µM
  TGI: 0.78 µM
MCF7 breast
  GI50: < 0.0208 µM
  TGI: 0.612 µM
NCI-H460 lung
  GI50: 0.0704 µM
  TGI: 0.208 µM

## Fc1ccc(/C=N/n2c(-c3ccc(F)c(Cl)c3)n[nH]c2=S)cc1
A498 renal
  GI50: 13.8 µM
  TGI: 31 µM
HOP-92 NSCLC
  GI50: 15.1 µM
  TGI: 34.6 µM
SF-295 CNS
  GI50: 31.7 µM
  TGI: 76.8 µM
MDA-MB-231 breast
  GI50: 20.2 µM
  TGI: 38.9 µM
K-562 leukemia
  GI50: 19.3 µM
  TGI: 36.6 µM
OVCAR-4 ovarian
  GI50: 19.9 µM
  TGI: 39.9 µM
SK-MEL-2 melanoma
  GI50: 38.7 µM
  TGI: > 100 µM
HCT-116 colon
  GI50: 16.3 µM
  TGI: 29.9 µM
MCF7 breast
  GI50: 19.7 µM
  TGI: 43 µM
NCI-H460 lung
  GI50: 19.2 µM
  TGI: 38.3 µM

## CSc1ccc(C2=NN(C(C)=O)C(c3ccc(-c4ccc(Cl)cc4)o3)C2)cc1 (stereo not given)
A498 renal
  GI50: 26 µM
  TGI: 48 µM
HOP-92 NSCLC
  GI50: 22.7 µM
  TGI: 80.1 µM
SF-295 CNS
  GI50: 34 µM
  TGI: > 100 µM
MDA-MB-231 breast
  GI50: 19.3 µM
  TGI: > 100 µM
K-562 leukemia
  GI50: 31.5 µM
  TGI: > 100 µM
OVCAR-4 ovarian
  GI50: 32.9 µM
  TGI: > 100 µM
SK-MEL-2 melanoma
  GI50: 28.9 µM
  TGI: > 100 µM
HCT-116 colon
  GI50: 18.7 µM
  TGI: > 100 µM
MCF7 breast
  GI50: 39.9 µM
  TGI: > 100 µM
NCI-H460 lung
  GI50: 40 µM
  TGI: > 100 µM

## COc1cc(-c2nn(-c3cccc(NC(=O)CCN4CCN(Cc5ccccc5)CC4)c3)cc2-c2ccncc2)ccc1Cl
A498 renal
  GI50: 1.41 µM
  TGI: 6.71 µM
HOP-92 NSCLC
  GI50: 0.79 µM
  TGI: 4.44 µM
SF-295 CNS
  GI50: 0.482 µM
  TGI: 1.95 µM
MDA-MB-231 breast
  GI50: 1.64 µM
  TGI: 3.71 µM
OVCAR-4 ovarian
  GI50: 1.8 µM
  TGI: 41 µM
SK-MEL-2 melanoma
  GI50: 1.39 µM
  TGI: 4.14 µM
HCT-116 colon
  GI50: 0.406 µM
  TGI: 1.75 µM
MCF7 breast
  GI50: 0.386 µM
  TGI: 3.27 µM
NCI-H460 lung
  GI50: 0.38 µM
  TGI: 1.46 µM

## O=c1c2cc(F)ccc2sc2c(NCCCNCCO)nc3ccccc3c12
A498 renal
  GI50: 1.67 µM
  TGI: 3.32 µM
HOP-92 NSCLC
  GI50: 1.23 µM
  TGI: 3.14 µM
SF-295 CNS
  GI50: 1.77 µM
  TGI: 3.26 µM
MDA-MB-231 breast
  GI50: 1.56 µM
  TGI: 3.03 µM
OVCAR-4 ovarian
  GI50: 1.92 µM
  TGI: 4.05 µM
SK-MEL-2 melanoma
  GI50: 1.94 µM
  TGI: 4.01 µM
HCT-116 colon
  GI50: 1.73 µM
  TGI: 3.32 µM
MCF7 breast
  GI50: 1.41 µM
  TGI: 2.94 µM
NCI-H460 lung
  GI50: 1.64 µM
  TGI: 3.19 µM

## C=C1[C@@H](O)O[C@H]2[C@H]1C[C@H](OC(C)=O)[C@]13C(=O)O[C@H]4C[C@](C)(O)[C@H]([C@H]41)C31C=C(C)[C@]2(O)O1
HOP-92 NSCLC
  GI50: > 100 µM
  TGI: > 100 µM
SF-295 CNS
  GI50: 4.03 µM
  TGI: > 100 µM
MDA-MB-231 breast
  GI50: 34.9 µM
  TGI: > 100 µM
K-562 leukemia
  GI50: 53.8 µM
  TGI: > 100 µM
OVCAR-4 ovarian
  GI50: > 100 µM
  TGI: > 100 µM
SK-MEL-2 melanoma
  GI50: 18.6 µM
  TGI: 59.7 µM
HCT-116 colon
  GI50: 19.8 µM
  TGI: 38.2 µM
MCF7 breast
  GI50: 25.8 µM
  TGI: 54.7 µM
NCI-H460 lung
  GI50: 32.5 µM
  TGI: 96.9 µM

## C/C(=N\O)c1cccc(Nc2cc(-n3ccnc3)c3ccccc3n2)c1
A498 renal
  GI50: 21.6 µM
  TGI: 39.1 µM
HOP-92 NSCLC
  GI50: 30.2 µM
  TGI: 92.1 µM
SF-295 CNS
  GI50: 8.16 µM
  TGI: 22.8 µM
MDA-MB-231 breast
  GI50: 6.26 µM
  TGI: 24 µM
K-562 leukemia
  GI50: 18.9 µM
  TGI: 73.1 µM
SK-MEL-2 melanoma
  GI50: 16.4 µM
  TGI: 31.6 µM
HCT-116 colon
  GI50: 13.9 µM
  TGI: 26.8 µM
MCF7 breast
  GI50: > 100 µM
  TGI: > 100 µM
NCI-H460 lung
  GI50: > 100 µM
  TGI: > 100 µM

## COc1ccc2c(c1)C(=O)c1c-2c(OCCN(C)C)nc2ccccc12
A498 renal
  GI50: 1.87 µM
  TGI: 10.7 µM
HOP-92 NSCLC
  GI50: 8.05 µM
  TGI: 81.8 µM
MDA-MB-231 breast
  GI50: 4.02 µM
  TGI: 20.8 µM
K-562 leukemia
  GI50: 1.6 µM
  TGI: 10.3 µM
OVCAR-4 ovarian
  GI50: 3.03 µM
  TGI: 10.8 µM
SK-MEL-2 melanoma
  GI50: 12.2 µM
  TGI: 25.7 µM
HCT-116 colon
  GI50: 0.768 µM
  TGI: 10.8 µM
MCF7 breast
  GI50: 1.76 µM
  TGI: 10.9 µM
NCI-H460 lung
  GI50: 1.15 µM
  TGI: 4.33 µM
